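Five concentrations, 48 hours, 96-well plates. GI50 marks 50% less growth. TGI marks complete inhibition of growth.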 A value given as a limit tells only on which side of the number the result lay.

The test system of the first assay is A498 renal. As to the kind of experiment: NCI anticancer screen, dose series, 48 h.
The compound `CC(=O)Oc1c(C)c(-c2ccccc2)c(C)c(-c2ccccc2)c1C(=S)c1ccccc1` yielded a TGI of over 100 µM.

Compound `N#CCC(=O)N/N=C1/C(=O)N(c2ccc(Cl)cc2)C(=O)C(=O)C1c1nc2ccccc2s1` (centres undefined) registered a TGI of over 100 µM.

`CCCCCCCCCCCC(=O)OCCOCCOCCOCCOCCOC(=O)CCCCCCCCCCC` showed a TGI of over 100 µM.

In turn, `COc1ccc(C=O)cc1O[Si](C)(C)C(C)(C)C` gave a TGI of over 100 µM.

Compound `O=S(=O)(C1=CC(S(=O)(=O)c2ccccc2)CN(Cc2ccccc2)C1c1cccc2ccccc12)c1ccccc1` (centres undefined) had a TGI of over 69 µM.

As for `O=C1C=C(Nc2ccccc2C(=O)CC(=O)C(=O)Nc2cccc([N+](=O)[O-])c2)c2ccccc2C1=O`, the TGI is over 100 µM.

For `O=C(Nc1ccc(Cl)cc1)C1C(=O)C(=O)N(c2ccc(Cl)cc2)C1=O` (centres undefined), the TGI was over 100 µM.

Take `CCC[CH2][Sn]([CH2]CCC)([O]C(=O)CN)[O]C(=O)CN`: the GI50 was 44.8 µM and the TGI was over 100 µM.

Compound `CC(=O)c1ccc(NC(=O)/C(CC(=O)c2sc(-c3cccnc3)nc2C)=N/NC(N)=O)cc1` gave a TGI of over 100 µM.

The compound `C=CC[P@]1(=O)O[C@H](c2ccccc2)[C@H](C)N1C` returned a TGI of over 100 µM.

Turning to `O=C(Nc1cccc(O)c1)C(=O)C1C(=O)NC(=S)NC1=O`, the TGI was over 100 µM.

Take `COC(=O)C(=O)CC(=O)CCn1[nH]c(=O)c(Cl)c(Cl)c1=O`: the TGI is over 100 µM.

The compound `OCC12C=CC(C1)c1ccccc12` (centres undefined) came in with a TGI of over 100 µM.

Regarding `CCOC1C(Br)Cn2c(=O)c3cc4ccccc4cc3c(=O)n2C1C` (centres undefined), the TGI worked out at 78.7 µM.

As to `NC(CCCC(N)P(=O)(O)O)P(=O)(O)O` (centres undefined), the TGI is over 100 µM.

As to `C[C@]12CC=CC(=O)[C@@]1(C)CCC(=O)C2`, the TGI is over 100 µM.

On to `COc1ccc2nc3cc(Cl)ccc3c(Sc3ccc([N+](=O)[O-])cc3C)c2c1`, for which the TGI was over 100 µM.

The subject of a further assay is SW-620 colon. As to the kind of experiment: NCI anticancer screen, dose series, 48 h.
In turn, `CCC1=CCN(c2cc(C)ccn2)OC1c1ccc(OC)cc1` (centres undefined) returned a TGI of over 100 µM.

In turn, `N#CCC(=O)N/N=C1/C(=O)N(c2ccc(Cl)cc2)C(=O)C(=O)C1c1nc2ccccc2s1` (centres undefined) returned a TGI of over 100 µM.

Compound `CCCCCCCCCCCC(=O)OCCOCCOCCOCCOCCOC(=O)CCCCCCCCCCC` yielded a TGI of over 100 µM.

The compound `COc1ccc(C=O)cc1O[Si](C)(C)C(C)(C)C` showed a TGI of over 100 µM.

For the compound `O=C1COc2cc(NC(=S)Nc3ccccc3)ccc2N1`, the TGI is over 100 µM.

Compound `O=S(=O)(C1=CC(S(=O)(=O)c2ccccc2)CN(Cc2ccccc2)C1c1cccc2ccccc12)c1ccccc1` (centres undefined) returned a TGI of over 69 µM.

The compound `O=C1C=C(Nc2ccccc2C(=O)CC(=O)C(=O)Nc2cccc([N+](=O)[O-])c2)c2ccccc2C1=O` gave a TGI of 87 µM.

`O=C(Nc1ccc(Cl)cc1)C1C(=O)C(=O)N(c2ccc(Cl)cc2)C1=O` (centres undefined): the TGI was over 100 µM.

`CCC[CH2][Sn]([CH2]CCC)([O]C(=O)CN)[O]C(=O)CN`: the GI50 is 18.1 µM and the TGI came out at 37 µM.

Regarding `CC(=O)c1ccc(NC(=O)/C(CC(=O)c2sc(-c3cccnc3)nc2C)=N/NC(N)=O)cc1`, the TGI was over 100 µM.

As to `Cc1ccc(S(=O)(=O)OC2CC=CC2)cc1`, the TGI was over 100 µM.

In the case of `C=CC[P@]1(=O)O[C@H](c2ccccc2)[C@H](C)N1C`, the TGI was over 100 µM.

With `O=C(Nc1cccc(O)c1)C(=O)C1C(=O)NC(=S)NC1=O`, the TGI was over 100 µM.

The compound `COC(=O)C(=O)CC(=O)CCn1[nH]c(=O)c(Cl)c(Cl)c1=O` came in with a TGI of over 100 µM.

On to `OCC12C=CC(C1)c1ccccc12` (centres undefined), for which the TGI was over 100 µM.

`CCOC1C(Br)Cn2c(=O)c3cc4ccccc4cc3c(=O)n2C1C` (centres undefined) yielded a TGI of over 100 µM.

`NC(CCCC(N)P(=O)(O)O)P(=O)(O)O` (centres undefined) yielded a TGI of over 100 µM.

Compound `CC(=O)C1C(c2ccccc2)C2(C)OC(=O)C(C#N)C12C` (centres undefined) registered a TGI of over 100 µM.

The compound `C[C@]12CC=CC(=O)[C@@]1(C)CCC(=O)C2` gave a TGI of over 100 µM.

Take `CC(=O)Oc1cc2c(cc1OC(C)=O)C1(C)CCC2(C)c2cc(OC(C)=O)c(OC(C)=O)cc21`: the TGI turned out to be 63.4 µM.

In turn, `COc1ccc2nc3cc(Cl)ccc3c(Sc3ccc([N+](=O)[O-])cc3C)c2c1` returned a TGI of over 100 µM.

A further assay concerns UACC-62 melanoma. The experiment in a line: NCI anticancer screen, dose series, 48 h.
Regarding `CCC1=CCN(c2cc(C)ccn2)OC1c1ccc(OC)cc1` (centres undefined), the TGI was over 100 µM.

As to `CC(=O)Oc1c(C)c(-c2ccccc2)c(C)c(-c2ccccc2)c1C(=S)c1ccccc1`, the TGI was over 100 µM.

In turn, `N#CCC(=O)N/N=C1/C(=O)N(c2ccc(Cl)cc2)C(=O)C(=O)C1c1nc2ccccc2s1` (centres undefined) displayed a TGI of over 100 µM.

The compound `CCCCCCCCCCCC(=O)OCCOCCOCCOCCOCCOC(=O)CCCCCCCCCCC` returned a TGI of over 100 µM.

The compound `COc1ccc(C=O)cc1O[Si](C)(C)C(C)(C)C` came in with a TGI of over 100 µM.

As to `CC1(O)C(C)(O)C2(C)O[Te]3(OC12C)OC1(C)C(C)(O)C(C)(O)C1(C)O3` (centres undefined), the TGI is over 100 µM.

With `O=C1COc2cc(NC(=S)Nc3ccccc3)ccc2N1`, the TGI is over 100 µM.

`O=S(=O)(C1=CC(S(=O)(=O)c2ccccc2)CN(Cc2ccccc2)C1c1cccc2ccccc12)c1ccccc1` (centres undefined) displayed a TGI of over 69 µM.

For the compound `O=C1C=C(Nc2ccccc2C(=O)CC(=O)C(=O)Nc2cccc([N+](=O)[O-])c2)c2ccccc2C1=O`, the TGI stood at 86.8 µM.

`O=C(Nc1ccc(Cl)cc1)C1C(=O)C(=O)N(c2ccc(Cl)cc2)C1=O` (centres undefined): the TGI was over 100 µM.

For the compound `CCC[CH2][Sn]([CH2]CCC)([O]C(=O)CN)[O]C(=O)CN`, the GI50 is 17.5 µM and the TGI amounted to 60.5 µM.

`CC(=O)c1ccc(NC(=O)/C(CC(=O)c2sc(-c3cccnc3)nc2C)=N/NC(N)=O)cc1` yielded a TGI of over 100 µM.

Compound `Cc1ccc(S(=O)(=O)OC2CC=CC2)cc1` registered a TGI of over 100 µM.

In the case of `C=CC[P@]1(=O)O[C@H](c2ccccc2)[C@H](C)N1C`, the TGI was over 100 µM.

On to `O=C(Nc1cccc(O)c1)C(=O)C1C(=O)NC(=S)NC1=O`, for which the TGI is over 100 µM.

Turning to `COC(=O)C(=O)CC(=O)CCn1[nH]c(=O)c(Cl)c(Cl)c1=O`, the TGI was over 100 µM.

Turning to `OCC12C=CC(C1)c1ccccc12` (centres undefined), the TGI is over 100 µM.

With `NC(CCCC(N)P(=O)(O)O)P(=O)(O)O` (centres undefined), the TGI is over 100 µM.

For the compound `CC(=O)C1C(c2ccccc2)C2(C)OC(=O)C(C#N)C12C` (centres undefined), the TGI is over 100 µM.

In turn, `C[C@]12CC=CC(=O)[C@@]1(C)CCC(=O)C2` registered a TGI of over 100 µM.

`CC(=O)Oc1cc2c(cc1OC(C)=O)C1(C)CCC2(C)c2cc(OC(C)=O)c(OC(C)=O)cc21` gave a TGI of 29.5 µM.

Compound `COc1ccc2nc3cc(Cl)ccc3c(Sc3ccc([N+](=O)[O-])cc3C)c2c1` yielded a TGI of over 100 µM.

Another assay has as its system RPMI-8226 leukemia. The experiment in a line: NCI anticancer screen, dose series, 48 h.
`CCC1=CCN(c2cc(C)ccn2)OC1c1ccc(OC)cc1` (centres undefined) came in with a TGI of 62.6 µM.

In turn, `CC(=O)Oc1c(C)c(-c2ccccc2)c(C)c(-c2ccccc2)c1C(=S)c1ccccc1` showed a TGI of over 100 µM.

Turning to `CCCCCCCCCCCC(=O)OCCOCCOCCOCCOCCOC(=O)CCCCCCCCCCC`, the TGI is over 100 µM.

For `COc1ccc(C=O)cc1O[Si](C)(C)C(C)(C)C`, the TGI is over 100 µM.

In the case of `CC1(O)C(C)(O)C2(C)O[Te]3(OC12C)OC1(C)C(C)(O)C(C)(O)C1(C)O3` (centres undefined), the TGI turned out to be 37.9 µM.

As to `O=C1COc2cc(NC(=S)Nc3ccccc3)ccc2N1`, the TGI was over 100 µM.

The compound `O=S(=O)(C1=CC(S(=O)(=O)c2ccccc2)CN(Cc2ccccc2)C1c1cccc2ccccc12)c1ccccc1` (centres undefined) displayed a TGI of over 69 µM.

Compound `O=C1C=C(Nc2ccccc2C(=O)CC(=O)C(=O)Nc2cccc([N+](=O)[O-])c2)c2ccccc2C1=O` had a TGI of 53.6 µM.

In turn, `O=C(Nc1ccc(Cl)cc1)C1C(=O)C(=O)N(c2ccc(Cl)cc2)C1=O` (centres undefined) gave a TGI of over 100 µM.

Turning to `CCC[CH2][Sn]([CH2]CCC)([O]C(=O)CN)[O]C(=O)CN`, the GI50 is 15.3 µM and the TGI came out at 54.5 µM.

`CC(=O)c1ccc(NC(=O)/C(CC(=O)c2sc(-c3cccnc3)nc2C)=N/NC(N)=O)cc1` came in with a TGI of 54.4 µM.

On to `Cc1ccc(S(=O)(=O)OC2CC=CC2)cc1`, for which the TGI is over 100 µM.

In turn, `C=CC[P@]1(=O)O[C@H](c2ccccc2)[C@H](C)N1C` registered a TGI of over 100 µM.

Take `O=C(Nc1cccc(O)c1)C(=O)C1C(=O)NC(=S)NC1=O`: the TGI was over 100 µM.

In the case of `OCC12C=CC(C1)c1ccccc12` (centres undefined), the TGI was over 100 µM.

`CCOC1C(Br)Cn2c(=O)c3cc4ccccc4cc3c(=O)n2C1C` (centres undefined) displayed a TGI of over 100 µM.

Compound `NC(CCCC(N)P(=O)(O)O)P(=O)(O)O` (centres undefined) gave a TGI of over 100 µM.

In the case of `CC(=O)C1C(c2ccccc2)C2(C)OC(=O)C(C#N)C12C` (centres undefined), the TGI is over 100 µM.

Compound `CC(=O)Oc1cc2c(cc1OC(C)=O)C1(C)CCC2(C)c2cc(OC(C)=O)c(OC(C)=O)cc21` displayed a TGI of 50.3 µM.

For the next assay, the system named is CCRF-CEM leukemia. The experiment in a line: NCI anticancer screen, dose series, 48 h.
In turn, `CCC1=CCN(c2cc(C)ccn2)OC1c1ccc(OC)cc1` (centres undefined) had a TGI of 85.7 µM.

Turning to `CC(=O)Oc1c(C)c(-c2ccccc2)c(C)c(-c2ccccc2)c1C(=S)c1ccccc1`, the TGI was over 100 µM.

For `CCCCCCCCCCCC(=O)OCCOCCOCCOCCOCCOC(=O)CCCCCCCCCCC`, the TGI is over 100 µM.

With `COc1ccc(C=O)cc1O[Si](C)(C)C(C)(C)C`, the TGI was over 100 µM.

On to `CC1(O)C(C)(O)C2(C)O[Te]3(OC12C)OC1(C)C(C)(O)C(C)(O)C1(C)O3` (centres undefined), for which the TGI is 22.9 µM.

Compound `O=C1COc2cc(NC(=S)Nc3ccccc3)ccc2N1` gave a TGI of over 100 µM.

Regarding `O=S(=O)(C1=CC(S(=O)(=O)c2ccccc2)CN(Cc2ccccc2)C1c1cccc2ccccc12)c1ccccc1` (centres undefined), the TGI was over 69 µM.

`O=C1C=C(Nc2ccccc2C(=O)CC(=O)C(=O)Nc2cccc([N+](=O)[O-])c2)c2ccccc2C1=O` returned a TGI of 87.8 µM.

In turn, `O=C(Nc1ccc(Cl)cc1)C1C(=O)C(=O)N(c2ccc(Cl)cc2)C1=O` (centres undefined) showed a TGI of over 100 µM.

Regarding `CCC[CH2][Sn]([CH2]CCC)([O]C(=O)CN)[O]C(=O)CN`, the GI50 was 5.93 µM and the TGI stood at 51.8 µM.

The record behind these values is PubChem BioAssay (NCI).
